Assay results taken from US20250041315A1, “LEVONORGESTREL BUTANOATE FORMULATION AND METHODS RELATING THERETO” (The USA, as Represented by the Secretary, Department of …, priority 2021, published 2025).

Key:
[1] = injections at 3-month intervals; cited from earlier work
[2] = Effect of gamma irradiation sterilization on spray dried LNGB particles (colour, qualitative HPLC); assay type: physicochemical
Protocol: In this comparative example, a sample of LNGB particles was prepared using a gamma irradiation step to sterilize spray dried particles. The LNGB particles were obtained by spray drying and then were subjected to gamma irradiation to evaluate the effect of irradiation on the particles. […] Qualitative HPLC was performed to compare the peak profiles of the LNGB particles before and after irradiation. FIGS. 2-5 show HPLC traces of the sample before (FIG. 2) and after (FIGS. 3-5) irradiation. Irradiated samples generated three major peaks, A, D, and E, at >0.15%, as well as a small peak, C, at ˜0.07%. […] In N2- and Ar-purged irradiated samples (FIGS. 4 and 5, respectively), peaks F and G were not resolved from other peaks (either degradation products or gradient artifacts).

CC(=O)O[C@]1(C(C)=O)CC[C@H]2[C@@H]3C[C@H](C)C4=CC(=O)CC[C@]4(C)[C@H]3CC[C@@]21C [DMPA, Depomedroxyprogesterone Acetate]
typical failure rate [1]: 4%

C#C[C@]1(OC(=O)CCC)CC[C@H]2[C@@H]3CCC4=CC(=O)CC[C@@H]4[C@H]3CC[C@@]21CC [LNGB particles, Levonorgestrel butanoate]
major impurity peaks A, D, and E (HPLC) after irradiation ([2]; irradiated samples): > 0.15% | small impurity peak C (HPLC) after irradiation ([2]; irradiated samples): ~0.07% | colour of particles after gamma irradiation ([2]; spray dried particles, gamma irradiated, initial particles white/translucent): yellow color
